Experimental data reported in EP1368050B1, “VIRUS DERIVED ANTIMICROBIAL PEPTIDES” (priority 2001, dated 2008).
In brackets after ≈: the same amount, converted by molar mass. Read-outs that look alike come from different tables or passages of the source. Residues, ends and D or L forms follow the SMILES beside them. No end group written: not given here.

How the values were obtained:
Details in all cases: 10 mM phosphate buffer, 99.9% killing
Staphylococcus aureus = experiment: Bacterial lysis assay (broth dilution), minimal bactericidal concentration; type: cell-based
From the text: (§1) The assays for growth inhibition of a microbial target can be used to derive a minimum bactericidal concentration (MBC) value for the peptide, i.e., the concentration of peptide required to kill 99.9% of the microbial sample being tested. This value is well known to those in the art as representative of the effectiveness of a particular antimicrobial agent (e.g., an antibiotic) against a particular organism or group of organisms. In assays to detect the MBC of a peptide, growth inhibition of a bacterial population also can be measured with reference to the number of colony forming units (cfu) after exposure to a peptide relative to a control experiment without a peptide.
(§2) Bacterial lysis assay. Bacterial lysis assays were conducted in a manner similar to that described previously (Lehrer, R. I., M. E. Selsted, D. Szklarek, and F. J. 1983. Infect. Immun. 42: 10-4, 1983; Miller, M. A., R. F. Garry, J. M. Jaynes, and R. C. Montelaro, AIDS Res Hum Retroviruses 7: 511-519, 1991). Bacterial suspensions were cultured in Luria-Bertani Broth to mid-log growth phase and washed by two cycles of centrifugation and suspension in 10 mM phosphate buffer. The Abs600 of the suspension was adjusted with 10 mM phosphate buffer such that, upon dilution, 5-10x10^5 cfu/mL would be treated in the assay. Bacteria were incubated for 1h with two-fold dilutions of peptides (100µM to 100 nM) in 96-well plates using 10 mM phosphate buffer, pH 7.2, as a diluent. Ten-fold dilutions of bacteria were performed to 1:1000; a 100µl aliquot from each condition was spread on the surface of tryptic soy agar plates (Difco, Detroit, Mich.) which were incubated overnight. Colonies of surviving bacteria (cfu, colony-forming units) were counted and compared to untreated controls to determine the amount of peptide-induced killing under each condition. Log killing is defined as the log of the ratio of cfu present before and after treatment with peptide. The minimal bactericidal concentration, MBC, is the peptide concentration at which 99.9% (three log) killing is achieved (Pearson et al., Antimicrob. Agents Chemother. 18: 699-708, 1980).
(§3) Results. Representative gram positive (S. aureus) and gram negative (P. aeruginosa) clinical isolates were used as the index bacteria to survey the peptides described in this invention.
(§4) A limitation of many host-derived antimicrobial peptides is their decreased activity at physiologic (150 mM) NaCl concentration. See Friedrich et al., Antimicrobial Agents and Chemotherapy 43:1542-1548. The activity of eLLPs and LBUs of this invention were compared to an expanded list of clinical bacterial isolates. These are summarized in Table 2 by comparing their MBCs in phosphate buffer alone (low salt) and phosphate buffer containing 150 mM NaCl (physiologic conditions). Inspection of this table would lead one skilled in the art to conclude that the activity of eLLPs and LBUs compare favorably to the host derived antimicrobial peptides as it relates to the spectrum and potency of antimicrobial activity.

Psuedomonas aeruginosa = experiment: as above; type: cell-based, Pseudomonas aeruginosa
From the text: as §1, §2, §3, §4

[1] = test system: Methicillin Resistant S. aureus; type: cell-based
From the text: as §1, §2, §4

| Molecule | MBC (Staphylococcus aureus; 0 mM NaCl) | MBC (Staphylococcus aureus; 150 mM NaCl) | MBC (Psuedomonas aeruginosa; 0 mM NaCl) [µM] | MBC (Psuedomonas aeruginosa; 150 mM NaCl) [µM] | MBC ([1]; 0 mM NaCl) | MBC ([1]; 150 mM NaCl) |
| --- | --- | --- | --- | --- | --- | --- |
| CC(C)[C@H](NC(=O)[C@H](CCCNC(=N)N)NC(=O)[C@H](CCCNC(=N)N)NC(=O)[C@@H](NC(=O)[C@@H](NC(=O)[C@H](CCCNC(=N)N)NC(=O)[C@@H](N)CCCNC(=N)N)C(C)C)C(C)C)C(=O)N[C@@H](CCCNC(=N)N)C(=O)N[C@@H](CCCNC(=N)N)C(=O)N[C@H](C(=O)N[C@H](C(=O)N[C@@H](CCCNC(=N)N)C(=O)N[C@@H](CCCNC(=N)N)C(=O)N[C@H](C(=O)N[C@H](C(=O)N[C@@H](CCCNC(=N)N)C(=O)N[C@H](C(=O)N[C@H](C(=O)N[C@@H](CCCNC(=N)N)C(=O)N[C@@H](CCCNC(=N)N)C(=O)N[C@H](C(=O)N[C@H](C(=O)N[C@@H](CCCNC(=N)N)C(=O)N[C@@H](CCCNC(=N)N)C(=O)O)C(C)C)C(C)C)C(C)C)C(C)C)C(C)C)C(C)C)C(C)C)C(C)C [LBU-2, RRVVRRVRRV VRRVV RVVRR VVRR] (H-RRVVRRVRRVVRRVVRVVRRVVRR-OH) | 1500 nM (≈ 4.71 µg/mL) | >100,000 nanomolar | 1.5 (≈ 4.71 µg/mL) | 0.8 (≈ 2.51 µg/mL) |  |  |
| CC(C)[C@H](NC(=O)[C@H](Cc1c[nH]c2ccccc12)NC(=O)[C@H](CCCNC(=N)N)NC(=O)[C@H](CCCNC(=N)N)NC(=O)[C@@H](NC(=O)[C@@H](NC(=O)[C@H](CCCNC(=N)N)NC(=O)[C@@H](NC(=O)[C@@H](NC(=O)[C@H](CCCNC(=N)N)NC(=O)[C@H](CCCNC(=N)N)NC(=O)[C@H](Cc1c[nH]c2ccccc12)NC(=O)[C@@H](NC(=O)[C@H](CCCNC(=N)N)NC(=O)[C@H](CCCNC(=N)N)NC(=O)[C@@H](NC(=O)[C@H](CCCNC(=N)N)NC(=O)[C@H](CCCNC(=N)N)NC(=O)[C@@H](NC(=O)[C@H](Cc1c[nH]c2ccccc12)NC(=O)[C@H](CCCNC(=N)N)NC(=O)[C@@H](N)CCCNC(=N)N)C(C)C)C(C)C)C(C)C)C(C)C)C(C)C)C(C)C)C(C)C)C(=O)N[C@@H](CCCNC(=N)N)C(=O)N[C@@H](CCCNC(=N)N)C(=O)O [WLBU-2, RRWVRRVRRV WRRVV RVVRR WVRR] (H-RRWVRRVRRVWRRVVRVVRRWVRR-OH) | 1000 nM (≈ 3.4 µg/mL) | 600 nM (≈ 2.04 µg/mL) | 0.2 (≈ 0.68 µg/mL) | 0.1 (≈ 0.34 µg/mL) | 200 nM (≈ 0.68 µg/mL) | 100 nM (≈ 0.34 µg/mL) |
| RRVVRRVRRVVRRVVRVVRRVVRRVRRVVRRVVRVVRRVVRR [LBU-3.5, RRVVRRVRRVVRRVVRVVRRVVRRVRRVVRRVVRVVRRVVRR] | 1000 nM | 600 nM | 0.4 | 0.4 | 1500 nM | 200 nM |
| RVVRVVRRWVRRVRRVWRRVVRVVRRWVRRVRRVWRRVVRVVRRWRVV [WLBU-4, RVVRVVRRWVRRVRRVWRRVVRVVRRRVVRVVRRWRVV RWVRR VRRVW] | 3,000 nanomolar | 600 nM | 1.5 | 0.4 | 1500 nM | 200 nM |
| CC(C)[C@H](NC(=O)[C@H](Cc1c[nH]c2ccccc12)NC(=O)[C@H](CCCNC(=N)N)NC(=O)[C@H](CCCNC(=N)N)NC(=O)[C@@H](NC(=O)[C@@H](NC(=O)[C@H](CCCNC(=N)N)NC(=O)[C@@H](NC(=O)[C@@H](NC(=O)[C@@H](N)CCCNC(=N)N)C(C)C)C(C)C)C(C)C)C(C)C)C(=O)N[C@@H](CCCNC(=N)N)C(=O)N[C@@H](CCCNC(=N)N)C(=O)O [WLBU-1, RVVRV VRRWV RR] (H-RVVRVVRRWVRR-OH) | 30.000 nM (≈ 0.0491 µg/mL) | 10.000 nM (≈ 0.0164 µg/mL) | 0.4 (≈ 0.655 µg/mL) | 2.5 (≈ 4.09 µg/mL) | 50,000 nanomolar | 50,000 nanomolar |
| RVVRVVRRVVRRVRRVVRRVVRVVRRVVRRVRRVVRRVVRVVRRVVRR [LBU-4, RVVRVVRRVVRRVRRVVRRVVRVVRRVVRRVRRVVRRVVRVVRRVVRR] | 800 nM | 800 nM | 0.8 | 0.4 |  |  |
| CC(C)[C@H](N)C(=O)N[C@@H](CCCNC(=N)N)C(=O)N[C@@H](CCCNC(=N)N)C(=O)N[C@H](C(=O)N[C@@H](Cc1c[nH]c2ccccc12)C(=O)N[C@@H](CCCNC(=N)N)C(=O)N[C@@H](CCCNC(=N)N)C(=O)N[C@H](C(=O)N[C@H](C(=O)N[C@@H](CCCNC(=N)N)C(=O)N[C@H](C(=O)N[C@H](C(=O)N[C@@H](CCCNC(=N)N)C(=O)N[C@@H](CCCNC(=N)N)C(=O)N[C@@H](Cc1c[nH]c2ccccc12)C(=O)N[C@H](C(=O)N[C@@H](CCCNC(=N)N)C(=O)N[C@@H](CCCNC(=N)N)C(=O)N[C@H](C(=O)N[C@@H](CCCNC(=N)N)C(=O)N[C@@H](CCCNC(=N)N)C(=O)N[C@H](C(=O)N[C@@H](Cc1c[nH]c2ccccc12)C(=O)N[C@@H](CCCNC(=N)N)C(=O)N[C@@H](CCCNC(=N)N)C(=O)N[C@H](C(=O)N[C@H](C(=O)N[C@@H](CCCNC(=N)N)C(=O)N[C@H](C(=O)N[C@H](C(=O)N[C@@H](CCCNC(=N)N)C(=O)N[C@@H](CCCNC(=N)N)C(=O)N[C@@H](Cc1c[nH]c2ccccc12)C(=O)N[C@H](C(=O)N[C@@H](CCCNC(=N)N)C(=O)N[C@@H](CCCNC(=N)N)C(=O)O)C(C)C)C(C)C)C(C)C)C(C)C)C(C)C)C(C)C)C(C)C)C(C)C)C(C)C)C(C)C)C(C)C)C(C)C)C(C)C [WLBU-3, VRRVWRRVVRVVRRWVRRVRRVWRRVVRVVRRWVRR] (H-VRRVWRRVVRVVRRWVRRVRRVWRRVVRVVRRWVRR-OH) | 3,000 nanomolar | 600 nM (≈ 2.98 µg/mL) | 1.5 (≈ 7.44 µg/mL) | 0.8 (≈ 3.97 µg/mL) | 400 nM (≈ 1.98 µg/mL) | 100 nM (≈ 0.496 µg/mL) |
| CC(C)[C@H](N)C(=O)N[C@@H](CCCNC(=N)N)C(=O)N[C@@H](CCCNC(=N)N)C(=O)N[C@H](C(=O)N[C@H](C(=O)N[C@@H](CCCNC(=N)N)C(=O)N[C@@H](CCCNC(=N)N)C(=O)N[C@H](C(=O)N[C@H](C(=O)N[C@@H](CCCNC(=N)N)C(=O)N[C@H](C(=O)N[C@H](C(=O)N[C@@H](CCCNC(=N)N)C(=O)N[C@@H](CCCNC(=N)N)C(=O)N[C@H](C(=O)N[C@H](C(=O)N[C@@H](CCCNC(=N)N)C(=O)N[C@@H](CCCNC(=N)N)C(=O)N[C@H](C(=O)N[C@@H](CCCNC(=N)N)C(=O)N[C@@H](CCCNC(=N)N)C(=O)N[C@H](C(=O)N[C@H](C(=O)N[C@@H](CCCNC(=N)N)C(=O)N[C@@H](CCCNC(=N)N)C(=O)N[C@H](C(=O)N[C@H](C(=O)N[C@@H](CCCNC(=N)N)C(=O)N[C@H](C(=O)N[C@H](C(=O)N[C@@H](CCCNC(=N)N)C(=O)N[C@@H](CCCNC(=N)N)C(=O)N[C@H](C(=O)N[C@H](C(=O)N[C@@H](CCCNC(=N)N)C(=O)N[C@@H](CCCNC(=N)N)C(=O)O)C(C)C)C(C)C)C(C)C)C(C)C)C(C)C)C(C)C)C(C)C)C(C)C)C(C)C)C(C)C)C(C)C)C(C)C)C(C)C)C(C)C)C(C)C)C(C)C)C(C)C [LBU-3, VRRVVRRVVRVVRRVVRRVRRVVRRVVRVV RRVVRR] (H-VRRVVRRVVRVVRRVVRRVRRVVRRVVRVVRRVVRR-OH) | 1500 nM (≈ 6.92 µg/mL) | 1500 nM (≈ 6.92 µg/mL) | 1.5 (≈ 6.92 µg/mL) | 0.8 (≈ 3.69 µg/mL) |  |  |
